Data from ChEMBL document CHEMBL4680293, “Tubulin inhibitory activity of a novel colchicine-binding compounds based on a dinaphthospiropyranran scaffold” (Bioorg Med Chem, 2021).

Legend:
[1] = system: HCT-15; assay: Anti-cancer activity against human HCT-15 cells assessed as cell growth inhibition measured after 48 hrs by SRB method; format: functional, cell-based
[2] = system: SF-539; assay: Anti-cancer activity against human SF-539 cells assessed as cell growth inhibition measured after 48 hrs by SRB method; format: functional, cell-based
[3] = system: SK-MEL-5; assay: Anti-cancer activity against human SK-MEL-5 cells assessed as cell growth inhibition measured after 48 hrs by SRB method; format: functional, cell-based
[4] = system: UACC-257; assay: Anti-cancer activity against human UACC-257 cells assessed as cell growth inhibition measured after 48 hrs by SRB method; format: functional, cell-based
[5] = system: UACC-62; assay: Anti-cancer activity against human UACC-62 cells assessed as cell growth inhibition measured after 48 hrs by SRB method; format: functional, cell-based
[6] = system: OVCAR-4; assay: Anti-cancer activity against human OVCAR-4 cells assessed as cell growth inhibition measured after 48 hrs by SRB method; format: functional, cell-based
[7] = system: BT-549; assay: Anti-cancer activity against human BT-549 cells assessed as cell growth inhibition measured after 48 hrs by SRB method; format: functional, cell-based
[8] = system: MDA-MB-468; assay: Anti-cancer activity against human MDA-MB-468 cells assessed as cell growth inhibition measured after 48 hrs by SRB method; format: functional, cell-based
[9] = system: HOP-92; assay: Anti-cancer activity against human HOP-92 cells assessed as cell growth inhibition measured after 48 hrs by SRB method; format: functional, cell-based
[10] = system: NCI-H226; assay: Anti-cancer activity against human NCI-H226 cells assessed as cell growth inhibition measured after 48 hrs by SRB method; format: functional, cell-based
[11] = system: RXF 393; assay: Anti-cancer activity against human RXF 393 cells assessed as cell growth inhibition measured after 48 hrs by SRB method; format: functional, cell-based
[12] = system: Leukemia cell; assay: Anti-cancer activity against human leukemia cells assessed as cell growth inhibition measured after 48 hrs by SRB method; format: functional
[13] = Anti-cancer activity against human melanoma cells assessed as cell growth inhibition measured after 48 hrs by SRB method; format: functional; settings: Melanoma cell line
[14] = Anti-cancer activity against human breast cancer cells assessed as cell growth inhibition measured after 48 hrs by SRB method; format: functional; settings: Breast cancer cell line
[15] = Anti-cancer activity against human prostate cancer cells assessed as cell growth inhibition measured after 48 hrs by SRB method; format: functional; settings: Prostate tumor cell line

With `C1=C2CNCC3=Cc4c(ccc5ccccc45)OC23Oc2ccc3ccccc3c21` the IC50 ([1]; HCT-15, 48 h) was 5.5 µM, the GI50 ([1]; HCT-15, time 48 hrs) was 3.89 µM and the LC50 ([1]; HCT-15, time 48 hrs) was 4 µM. It also gave a TGI ([1]; HCT-15, time 48 hrs) of 22.4 µM, an IC50 ([2]; SF-539, 48 h) of 6.03 µM and a GI50 ([2]; SF-539, time 48 hrs) of 3.39 µM. For the same molecule, the LC50 (concentration killing 50% of cells) ([2]; SF-539, time 48 hrs) was 4 µM, the TGI ([2]; SF-539, time 48 hrs) was 14.8 µM and the IC50 ([3]; SK-MEL-5, 48 h) was 6.03 µM. It also gave a GI50 ([3]; SK-MEL-5, time 48 hrs) of 3.16 µM, a TGI ([3]; SK-MEL-5, time 48 hrs) of 13.8 µM and a CC50 ([3]; SK-MEL-5, time 48 hrs, read-out: LC50 (the source's name)) of 4.33 µM. For the same molecule, the IC50 ([4]; UACC-257, 48 h) was 37.2 µM, the GI50 ([4]; UACC-257, time 48 hrs) was 12.6 µM and the LC50 (50% lethal concentration) ([4]; UACC-257, time 48 hrs) was 4 µM. The TGI ([4]; UACC-257, time 48 hrs) was 38.9 µM, the IC50 ([5]; UACC-62, 48 h) was 12.9 µM and the GI50 ([5]; UACC-62, time 48 hrs) was 5.01 µM. It also gave an LC50 (50% lethal concentration) ([5]; UACC-62, time 48 hrs) of 4.16 µM, a TGI ([5]; UACC-62, time 48 hrs) of 21.9 µM and an IC50 ([6]; OVCAR-4, 48 h) of 11.7 µM. It also gave a GI50 ([6]; OVCAR-4, time 48 hrs) of 4.68 µM, an LC50 ([6]; OVCAR-4, time 48 hrs) of 4.21 µM and a TGI ([6]; OVCAR-4, time 48 hrs) of 20 µM. It also gave an IC50 ([7]; BT-549, 48 h) of 40.7 µM, a GI50 ([7]; BT-549, time 48 hrs) of 11.2 µM and a TGI ([7]; BT-549, time 48 hrs) of 40.7 µM. It also gave a CC50 ([7]; BT-549, time 48 hrs, read-out: LC50 (the source's name)) of 4 µM, an IC50 ([8]; MDA-MB-468, 48 h) of 5.89 µM and a GI50 ([8]; MDA-MB-468, time 48 hrs) of 2.04 µM. The TGI ([8]; MDA-MB-468, time 48 hrs) was 7.59 µM, the CC50 ([8]; MDA-MB-468, time 48 hrs, read-out: LC50 (the source's name)) was 4.32 µM and the IC50 ([9]; HOP-92, 48 h) was 26.9 µM. The GI50 ([9]; HOP-92, time 48 hrs) was 2.88 µM, the TGI ([9]; HOP-92, time 48 hrs) was 17 µM and the IC50 ([10]; NCI-H226, 48 h) was 25.1 µM. It also gave a GI50 ([10]; NCI-H226, time 48 hrs) of 10.5 µM, a TGI ([10]; NCI-H226, time 48 hrs) of 27.5 µM and an IC50 ([11]; RXF 393, 48 h) of 5.01 µM. The GI50 ([11]; RXF 393, time 48 hrs) was 1.78 µM, the TGI ([11]; RXF 393, time 48 hrs) was 6.17 µM and the CC50 ([11]; RXF 393, time 48 hrs, read-out: LC50 (the source's name)) was 4.32 µM. It also gave a GI50 [12] of 3.16 µM, a GI50 [13] of 4.47 µM and a GI50 [14] of 4.68 µM. It also gave a GI50 [15] of 3.39 µM.
